{"source": "patent US5840690A", "about": "“Regulation of cell proliferation and differentation using peptides” (priority 1995, dated 1998)", "key": {"[1]": {"system": "cultured human keratinocytes", "test": "Keratinocyte culture: counts of total cells, basal cells and cornified envelopes", "type": "cell-based", "experimental": "Keratinocytes were grown in culture as follows. NIH 3T3 cells were plated at 0.5×10^5 cells per 35-mm tissue-culture dish, and two days later were lethally irradiated with a cobalt-60 source (5000 rads). Keratinocytes were obtained from neonatal foreskin after overnight trypsinization at 4° C. and treatment with 0.02% EDTA. Keratinocytes were plated in 2 ml of serum-free medium per dish on the lethally irradiated 3T3 cells. Each experiment was performed on primary or secondary keratinocyte cultures obtained from different skin samples.\nIn addition, 1,25-(OH)2 D3 was tested, alone and in combination with PTH (7-34), and PTH (1-34) and PTH (7-34) were tested together.\nBeginning at one week in culture, groups of triplicate plates of keratinocytes were incubated with the aforementioned compounds or vehicle alone. After one week of dosing, the medium was removed from each culture and centrifuged, and the pellet was resuspended for the counting of the desquamated floater cells. A hemacytometer was used to count the different cell types under a phase-contrast microscope. The attached cells were then trypsinized for 30-40 min with 0.1 EDTA and 0.1% trypsin and then neutralized with medium. The keratinocytes were pelleted and resuspended in a known volume of medium. Duplicate aliquots were taken for counting the basal (small, rounded) and squamous (larger, irregular-shaped, flattened) cells. The remaining cells were pelleted and treated with 10 mM Tris-HCl (pH 7.4) with 1% beta-mercaptoethanol and 1% sodium dodecyl sulfate (SDS) at room temperature for 10 min. Only cells with cornified envelopes were present after this treatment.\nEach culture was thus evaluated for its total cell content, number of basal cells, and cornified envelopes, as described above."}, "[2]": {"system": "tumor cells (for example, HL-60, U937, and M-1)", "settings": "tumor cells that possess a receptor for 1,25(OH)2 D3; cited from earlier work"}, "[3]": {"system": "cultured human fibroblasts", "settings": "cited from earlier work"}, "[4]": {"system": "cultured human keratinocytes", "settings": "cited from earlier work"}, "psoriasis": {"system": "psoriasis", "settings": "provided either orally or topically; cited from earlier work"}}, "data": [{"molecule": "C=C1/C(=C\\C=C2/CCC[C@]3(C)[C@@H]([C@H](C)CCCC(C)(C)O)CC[C@@H]23)C[C@@H](O)C[C@@H]1O", "note": "[1,25(OH)2 D3, 1,25-dihydroxyvitamin D3]", "values": [{"measurement": "total number of cells and number of basal cells", "setting": "[1]; 1,25(OH)2 D3 alone, one week of dosing, FIGS. 2-5", "value": "decreased in a dose-dependent manner"}, {"measurement": "total number of cornified envelopes, percent of control", "setting": "[1]; compound alone, FIGS. 6 and 7", "value": "increased, in a dose-dependent manner"}, {"measurement": "differentiation of tumor cells", "setting": "[2]", "value": "induces them to differentiate"}, {"measurement": "proliferation of tumor cells", "setting": "[2]", "value": "inhibits their proliferation"}, {"measurement": "proliferation of cultured human fibroblasts", "setting": "[3]", "value": "inhibits the proliferation"}, {"measurement": "proliferation of cultured human keratinocytes", "setting": "[4]", "value": "inhibits the proliferation"}, {"measurement": "terminal differentiation of keratinocytes", "setting": "[4]", "value": "induces keratinocytes to terminally differentiate"}, {"measurement": "value in the treatment of psoriasis", "setting": "psoriasis", "value": "of value in the treatment of psoriasis"}]}]}
